Measured values as given in patent publication EP0220011A2, “Use of azabicloalkylbenzamides in the treatment of gastrointestinal motility disorders, migraine, emesis, cluster headaches, trigeminal neuralgia and arrhythmia” (BEECHAM GROUP PLC, priority 1985, dated 1987).

Columns and labels:
Format in all cases: in vivo
[1] = Intragastric pressure in the rat; conditions: dose of 0.13 mg/kg s.c.; fasted conscious restrained rats; 40 minute period following dosing
Procedure: Intragastric pressure changes were recorded from fasted conscious and restrained rats using a saline filled catheter inserted into the lumen of the stomach via a permanent gastric fistula. The catheter was connected to a physiological pressure transducer and pressure changes recorded on a hot wire pen recorder. An index of activity was obtained by measuring the average height of pressure waves during 10 minute periods. Values for 4 such periods were obtained during assessment of spontaneous activity prior to dosing and for the 40 minute period following dosing with compound or vehicle. The Student's " t " test was applied to the mean values obtained for activity prior to and post treatment. Groups of 10 animals were used for each treatment.

[2] = tested on: von Bezold-Jarisch reflex evoked by 5-HT; assay: Antagonism of the von Bezold-Jarisch reflex; conditions: iv; anaesthetised rat; reduces the 5-HT-evoked heart rate response to 50% of the control response
Procedure: The compounds were evaluated for antagonism of the von Bezold-Jarisch reflex evoked by 5-HT in the anaesthetised rat according to the following method: • Male rats, 250-350g, were anaesthetised with urethane (1.25g/kg intraperitoneally) and blood pressure and heart rate recorded as described by Fozard J.R. et al., J. Cardiovasc. Pharmacol. 2, 229-245 (1^80). A submaximal dose of 5-HT (usually 6ug/kg) was given repeatedly by the intravenous route and changes in heart rate quantified. Compounds were given intravenously and the concentration required to reduce the 5-HT-evoked response to 50% of the control response (ED50) was then determined.

[3] = Intraluminal pressure in the Heidenhain pouch of the dog; conditions: dose of O.Olmg/kg i.v.; fasted conscious dog, chronic Heidenhain pouch; for at least 4-5 minutes
Procedure: Pressure changes were recorded via a saline filled catheter inserted, with airtight closure, into the fistula of a chronic Heidenhain pouch of the previously fasted and lightly restrained conscious dog. The catheter was connected to a physiological pressure transducer and pressure changes recorded on a hot wire pen recorder. Compounds were administered when the motility was in a phase of relatively low activity and the dose range determined which induced an increase in the amplitude of rhythmical contractions for a period of at least 4-5 minutes.

Compound	Intragastric pressure changes (average height of pressure waves) [1]	ED50 [2] [µg/kg]	increase in the amplitude of rhythmical contractions (intraluminal pressure) [3]
COc1cc(N)c(Cl)cc1C(=O)NC1CC2CCC(C1)N2C (stereo not drawn) [Compound No. 20, (endo)-4-amino-5-chloro-2-methoxy-N-(8-methyl-8-azabicyclo[3.2.1]octyl) benzamide]	active	0.8 ± 0.2	
COc1cc(N)c(Br)cc1C(=O)NC1CC2CCC(C1)N2C (stereo not drawn) [Example 1, (endo)-4-Amino-5-bromo-2-methoxy-N-(8-methyl-8-aza-bicyclo[3,2,l]oct-3-yl) benzamide]			active
